# According to patent US11324728B2, “Dosing regimens for the treatment of fungal infections” (Seren Pharmaceuticals Inc., priority 2017, dated 2022):
# Key:
# Trichophyton species = assay: Overall clinical evaluation by identified species; assay type: in vivo; conditions: 200 mg, Week 48
# Description: (§1) A Phase II clinical pharmacology study was conducted in subjects with onychomycosis of the toenail. The study investigated the pharmacokinetics, efficacy and safety of three different dosing regimens of fosravuconazole. […] The three treatment groups were as follows: • a.
# [1] = test system: onychomycosis of the toenail; assay: Phase II clinical study: changes over time in efficacy of the target nail (turbidity area ratio, clinical cure, relapse/reinfection); assay type: in vivo, human; conditions: for Clinical cure (no visual sign of infection) / Clinical cure rate and 95% CI / Remaining of the visual sign of infection: target nail; for Clinical cure (no visual sign of infection) / Clinical cure rate and 95% CI / Remaining of the visual sign of infection / turbidity area ratio regarding the target nail, Mean / turbidity area ratio regarding the target nail, Median: PPS
# Description: as §1
# The efficacy endpoints were: (1) overall clinical efficacy; (2) changes over time in efficacy; (3) confirmation of elements of dermatophytes by direct microscopy; and (4) results of identification of dermatophytes by the polymerase chain reaction (PCR) method.
smiles,measurement,setting,value
"C[C@@H](c1nc(-c2ccc(C#N)cc2)cs1)[C@@](Cn1cncn1)(OCOP(=O)(O)O)c1ccc(F)cc1F [fosravuconazole, 4-[2-[(1R,2R)-2-(2,4-difluorophenyl)-1-methyl-2-[(phosphonooxy)methoxy]-3-(1H-1,2,4-triazol-1-yl)propyl]-4-thiazolyl]benzo-nitrile]",Cure rate and 95% CI,Trichophyton species,0.0 %
same,Cured,Trichophyton species,0
same,Failed,Trichophyton species,0
same,Improved,Trichophyton species,0
same,Markedly improved,Trichophyton species,1
same,Slightly improved,Trichophyton species,0
same,relapse/reinfection,[1]; 100 mg (once daily dose) group,no subject
same,Clinical cure (no visual sign of infection),"[1]; 100 mg group, Week 48",11
same,Clinical cure rate and 95% CI,"[1]; 100 mg group, Week 48","44.0 (24.5, 65.0) %"
same,Remaining of the visual sign of infection,"[1]; 100 mg group, Week 48",14
same,"turbidity area ratio regarding the target nail, Mean","[1]; 100 mg, Start day of treatment",76.9%
same,"turbidity area ratio regarding the target nail, Median","[1]; 100 mg, Start day of treatment",75.5%
same,"turbidity area ratio regarding the target nail, Mean","[1]; 100 mg, Week 4",72.9%
same,"turbidity area ratio regarding the target nail, Median","[1]; 100 mg, Week 4",72.0%
same,"turbidity area ratio regarding the target nail, Mean","[1]; 100 mg, Week 8",65.9%
same,"turbidity area ratio regarding the target nail, Median","[1]; 100 mg, Week 8",67.0%
same,"turbidity area ratio regarding the target nail, Mean","[1]; 100 mg, Week 12",55.6%
same,"turbidity area ratio regarding the target nail, Median","[1]; 100 mg, Week 12",56.0%
same,"turbidity area ratio regarding the target nail, Mean","[1]; 100 mg, Week 16",44.2%
same,"turbidity area ratio regarding the target nail, Median","[1]; 100 mg, Week 16",46.0%
same,"turbidity area ratio regarding the target nail, Mean","[1]; 100 mg, Week 20",34.6%
same,"turbidity area ratio regarding the target nail, Median","[1]; 100 mg, Week 20",36.0%
same,"turbidity area ratio regarding the target nail, Mean","[1]; 100 mg, Week 24",26.5%
same,"turbidity area ratio regarding the target nail, Median","[1]; 100 mg, Week 24",25.0%
same,"turbidity area ratio regarding the target nail, Mean","[1]; 100 mg, Week 28",19.4%
same,"turbidity area ratio regarding the target nail, Median","[1]; 100 mg, Week 28",18.0%
same,"turbidity area ratio regarding the target nail, Mean","[1]; 100 mg, Week 32",14.4%
same,"turbidity area ratio regarding the target nail, Median","[1]; 100 mg, Week 32",15.0%
same,"turbidity area ratio regarding the target nail, Mean","[1]; 100 mg, Week 36",12.0%
same,"turbidity area ratio regarding the target nail, Median","[1]; 100 mg, Week 36",9.0%
same,"turbidity area ratio regarding the target nail, Mean","[1]; 100 mg, Week 40",9.6%
same,"turbidity area ratio regarding the target nail, Median","[1]; 100 mg, Week 40",12.0%
same,"turbidity area ratio regarding the target nail, Mean","[1]; 100 mg, Week 44",8.6%
same,"turbidity area ratio regarding the target nail, Median","[1]; 100 mg, Week 44",8.0%
same,"turbidity area ratio regarding the target nail, Mean","[1]; 100 mg, Week 48",9.3%
same,"turbidity area ratio regarding the target nail, Median","[1]; 100 mg, Week 48",6.0%
same,relapse/reinfection,[1]; 200 mg (pulse treatment) group,4 subjects
same,Clinical cure (no visual sign of infection),"[1]; 200 mg group, Week 48",7
same,Clinical cure rate and 95% CI,"[1]; 200 mg group, Week 48","31.8 (13.9, 54.8) %"
same,Remaining of the visual sign of infection,"[1]; 200 mg group, Week 48",15
same,"turbidity area ratio regarding the target nail, Mean","[1]; 200 mg, Start day of treatment",76.4%
same,"turbidity area ratio regarding the target nail, Median","[1]; 200 mg, Start day of treatment",74.0%
same,"turbidity area ratio regarding the target nail, Mean","[1]; 200 mg, Week 4",69.6%
same,"turbidity area ratio regarding the target nail, Median","[1]; 200 mg, Week 4",70.0%
same,"turbidity area ratio regarding the target nail, Mean","[1]; 200 mg, Week 8",59.8%
same,"turbidity area ratio regarding the target nail, Median","[1]; 200 mg, Week 8",58.5%
same,"turbidity area ratio regarding the target nail, Mean","[1]; 200 mg, Week 12",51.4%
same,"turbidity area ratio regarding the target nail, Median","[1]; 200 mg, Week 12",49.0%
same,"turbidity area ratio regarding the target nail, Mean","[1]; 200 mg, Week 16",45.0%
same,"turbidity area ratio regarding the target nail, Median","[1]; 200 mg, Week 16",45.0%
same,"turbidity area ratio regarding the target nail, Mean","[1]; 200 mg, Week 20",35.8%
same,"turbidity area ratio regarding the target nail, Median","[1]; 200 mg, Week 20",34.0%
same,"turbidity area ratio regarding the target nail, Mean","[1]; 200 mg, Week 24",27.9%
same,"turbidity area ratio regarding the target nail, Median","[1]; 200 mg, Week 24",25.0%
same,"turbidity area ratio regarding the target nail, Mean","[1]; 200 mg, Week 28",23.3%
same,"turbidity area ratio regarding the target nail, Median","[1]; 200 mg, Week 28",18.0%
same,"turbidity area ratio regarding the target nail, Mean","[1]; 200 mg, Week 32",20.0%
same,"turbidity area ratio regarding the target nail, Median","[1]; 200 mg, Week 32",9.0%
same,"turbidity area ratio regarding the target nail, Mean","[1]; 200 mg, Week 36",18.2%
same,"turbidity area ratio regarding the target nail, Median","[1]; 200 mg, Week 36",11.5%
same,"turbidity area ratio regarding the target nail, Mean","[1]; 200 mg, Week 40",16.0%
same,"turbidity area ratio regarding the target nail, Median","[1]; 200 mg, Week 40",10.0%
same,"turbidity area ratio regarding the target nail, Mean","[1]; 200 mg, Week 44",13.5%
same,"turbidity area ratio regarding the target nail, Median","[1]; 200 mg, Week 44",5.0%
same,"turbidity area ratio regarding the target nail, Mean","[1]; 200 mg, Week 48",14.6%
same,"turbidity area ratio regarding the target nail, Median","[1]; 200 mg, Week 48",9.0%
same,Clinical cure (no visual sign of infection),"[1]; 300 mg group, Week 48",11
same,Clinical cure rate and 95% CI,"[1]; 300 mg group, Week 48","40.7 (22.4, 61.2) %"
same,Remaining of the visual sign of infection,"[1]; 300 mg group, Week 48",16
same,relapse/reinfection,[1]; 400 mg group,1 subject
same,"turbidity area ratio regarding the target nail, Mean","[1]; 400 mg, Start day of treatment",74.4%
same,"turbidity area ratio regarding the target nail, Median","[1]; 400 mg, Start day of treatment",76.0%
same,"turbidity area ratio regarding the target nail, Mean","[1]; 400 mg, Week 4",66.9%
same,"turbidity area ratio regarding the target nail, Median","[1]; 400 mg, Week 4",67.0%
same,"turbidity area ratio regarding the target nail, Mean","[1]; 400 mg, Week 8",57.4%
same,"turbidity area ratio regarding the target nail, Median","[1]; 400 mg, Week 8",59.0%
same,"turbidity area ratio regarding the target nail, Mean","[1]; 400 mg, Week 12",49.3%
same,"turbidity area ratio regarding the target nail, Median","[1]; 400 mg, Week 12",52.0%
